pIC50: −log10 of the molar value.
Experiments:
COX-2 = test: Western blot for COX-2 protein in stimulated primary macrophages; format: cell-based, mouse; conditions: concentrations of 1 μM or less; IFN-γ 10 ng/ml, LPS 2 ng/ml, 12 h
Method: (§1) FIG. 14(A) illustrates Western blots; primary mouse macrophages; IFN-γ, 10 ng/ml; LPS, 2 ng/ml were added to cultures together with triterpenoids or dexamethasone (concentrations shown as […]); cells were harvested at 12 h. FIG. 14(B) illustrates Northern blots, RAW 264.7 macrophage-like cell line. IFN-γ, 10 ng/ml; LPS, 1 ng/ml; TNF-α, 10 ng/ml, were added to cultures together with CDDO or dexamethasone. RNA prepared after 12 h; GAPDH used as a loading control. FIG. 14(C) illustrates suppression of production of NO and PGEF in primary macrophages. For NO studies, cells were treated with IFN-γ, 10 ng/ml, together with CDDO (M), dexamethasone (O), TP-82 (□), or oleanolic acid (A). After 48 h, supernatants were analyzed for NO by the Griess reaction. For PGEF studies, cells were treated with IFN-γ, 5 ng/ml, and LPS, 5 ng/ml, together with the same set of inhibitors. After 48 h, PGE was measured in supernatants by immunoassay. Control values (no inhibition) for NO and PGE2 were 4.7 nmol/[…] and 2.2 ng/ml/2×10^5 cells, respectively. FIGS. (14D) and (14E) illustrate (human colon myofibroblasts) ^18Co cells grown in MEM/10% FBS; other methods are the same as reported above for macrophages. FIG. 14(D) illustrates Northern blots showing dose-response for suppression of COX-2 mRNA after induction with IL-1β (30 pg/ml). CDDO was added together with IL-1. […]

COX-2 mRNA = test: Northern blot for IL-1β-induced COX-2 mRNA in 18Co colon myofibroblasts; format: cell-based, human; conditions: 18Co cells, IL-1β 30 pg/ml
Method: as §1

[1] = test system: KG-1 acute myeloid leukemia cells; test: Inhibition of cell proliferation (3H-thymidine incorporation); format: cell-based, human; conditions: 3 or 4 days, 3H-thymidine 12 h
Method: (§2) All cells were obtained from ATCC, except as noted. They were grown under standard conditions in either DMEM, DMEM/F 12, or RPMI 1640 media plus 5-10% FBS. CDDO, over the dose range 10^−6 to 10^−10 M, was added to cultures at the time of seeding. Three or 4 days later, cells were treated with ^3H-thymidine for 2 h (12 h in the case of leukemia cells), and then incorporation was measured. “ER” means estrogen receptor.

[2] = test system: 21-NT ER negative breast carcinoma cells; test: as above; format: cell-based, human; conditions: 3 or 4 days, 3H-thymidine 2 h
Method: as §2

A2058 melanoma cells = test: as above; format: cell-based, human; conditions: 3 or 4 days, 3H-thymidine 2 h
Method: as §2

[3] = test system: NB4 promyelocytic leukemia cells; test: as above; format: cell-based, human; conditions: 3 or 4 days, 3H-thymidine 12 h
Method: as §2

[4] = test system: AML193 acute myelocytic leukemia cells; test: as above; format: cell-based, human; conditions: 3 or 4 days, 3H-thymidine 12 h
Method: as §2

[5] = test system: THP-1 monocytic leukemia cells; test: as above; format: cell-based, human; conditions: 3 or 4 days, 3H-thymidine 12 h
Method: as §2

[6] = test system: ML-1 myeloblastic leukemia cells; test: as above; format: cell-based, human; conditions: 3 or 4 days, 3H-thymidine 12 h
Method: as §2

[7] = test system: 21-MT-2 ER negative breast carcinoma cells; test: as above; format: cell-based, human; conditions: 3 or 4 days, 3H-thymidine 2 h
Method: as §2

[8] = test system: MDA-MB-231 ER negative breast carcinoma cells; test: as above; format: cell-based, human; conditions: 3 or 4 days, 3H-thymidine 2 h
Method: as §2

[9] = test system: 21-MT-1 ER negative breast carcinoma cells; test: as above; format: cell-based, human; conditions: 3 or 4 days, 3H-thymidine 2 h
Method: as §2

[10] = test system: HL-60 myelocytic leukemia cells; test: as above; format: cell-based, human; conditions: 3 or 4 days, 3H-thymidine 12 h
Method: as §2

[11] = test system: MCF-7 ER positive breast carcinoma cells; test: as above; format: cell-based, human; conditions: 3 or 4 days, 3H-thymidine 2 h
Method: as §2

[12] = test system: NT2/D1 embryonal carcinoma cells; test: as above; format: cell-based, human; conditions: 3 or 4 days, 3H-thymidine 2 h
Method: as §2

[13] = test system: U937 monocytic leukemia cells; test: as above; format: cell-based, human; conditions: 3 or 4 days, 3H-thymidine 12 h
Method: as §2

iNOS = test: Western blot for iNOS protein in stimulated primary macrophages; format: cell-based, mouse; conditions: concentrations of 1 μM or less; IFN-γ 10 ng/ml, LPS 2 ng/ml, 12 h
Method: as §1

3T3-L1 fibroblasts = test: Adipogenic differentiation, induction of GPDH; format: cell-based
Method: CDDO induces monocytic differentiation in the poorly differentiated LCDB acute myelogenous leukemia cell line, derived from a chemotherapy-resistant patient at the NCI Pediatric Oncology Branch. FIG. 11 illustrates LCDB cells seeded in RPMI 1640/2% FBS, either alone (11A), with 2.5 ng/ml TGF-β1 (11B), with 10^−8 M CDDO (11C), or with both TGF-β1 and CDDO (11D). After 48 h, cytospin slide preparations were made and stained for α-naphthyl acetate esterase activity (kit from Sigma). PC12 cells were cultured for 5 days in gridded dishes in DMEM/10% FBS and 5% horse serum (Smith et al., 1997), either alone (11E), with 100 ng/ml 7S NGF (11F), with 10^−6 M CDDO (11G), or with both NGF and CDDO (11H). […] Methods for quantitative image analysis of size of cells and neurites have been described (De 1a Torre et al., 1997). Control cells in FIG. 11E are approximately 10 μm in diameter. 3T3-L1 cells were grown to confluency in DMEM/5% calf serum, and then treated once with CDDO in DMEM/10% FBS (FIG. 12A) or with CDDO and/or LG100268 in DMEM/10% FBS (FIG. 12B). Every two days thereafter, medium was changed to DMEM/10% FBS, without added CDD0 or LG100268. Cells were harvested on day 8 (FIG. 12A) or day 6 (FIG. 12B), and GPDH was measured in lysates, using a standard assay for consumption of NADH at 340 nm (Wise and Green, 1979). […]

## CC1(C)CC[C@]2(C(=O)O)CC[C@]3(C)[C@H](C(=O)C=C4[C@@]5(C)C=C(C#N)C(=O)C(C)(C)[C@@H]5CC[C@]43C)[C@@H]2C1 [Compound 6, 2-cyano-3,12-dioxoolean-1,9-dien-28-oic acid]
COX-2
  expression of COX-2 protein: blocked expression
COX-2 mRNA
  induction of COX-2 mRNA: blocked induction
[1]
  pIC50: 6.70
[2]
  pIC50: 6.00
A2058 melanoma cells
  pIC50: 6.70
[3]
  pIC50: 7.40
[4]
  pIC50: 6.40
[5]
  pIC50: 7.30
[6]
  pIC50: 7.00
[7]
  pIC50: 6.52
[8]
  pIC50: 6.00
[9]
  pIC50: 6.70
[10]
  pIC50: 7.00
[11]
  pIC50: 7.52
[12]
  pIC50: 7.00
[13]
  pIC50: 6.70
iNOS
  expression of iNOS protein: blocked expression
3T3-L1 fibroblasts; CDDO with LG100268, day 6
  adipogenic differentiation, combination with RXR-selective retinoid LG100268: acts synergistically
3T3-L1 fibroblasts; doses as low as 10^−8 M, without insulin, dexamethasone, IBMX, day 8
  adipogenic differentiation, induction of GPDH: caused adipogenic differentiation

Reference: US20080234368A9, “Therapeutic compositions and methods of use” (Trustees of Dartmouth College, priority 1998, published 2008)
